ChEMBL document CHEMBL1201862, “PubChem BioAssay data set” (2004)
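Dose response: 5 concentrations. Exposure: 48 h. Format: 96-well plates. Endpoint: linear interpolation; highest concentration if not reached. GI50 marks 50% less growth.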 Active and inactive are the calls of the source. No stated cut-off is given here; in the data, active = GI50 up to about 1.1 µM and inactive = higher.

Columns and labels:
Test in all cases: DTP human tumour cell line panel, 48 h
MOLT-4 = system: MOLT-4
RPMI-8226 = system: RPMI-8226
SF-268 = system: SF-268
U-251 = system: U-251
M14 = system: M14
OVCAR-8 = system: OVCAR-8
UACC-257 = system: UACC-257
NCI-H226 = system: NCI-H226
ACHN = system: ACHN
A549 = system: A549
SK-MEL-28 = system: SK-MEL-28
DLD-1 = system: DLD-1
SK-MEL-2 = system: SK-MEL-2
Malme-3M = system: Malme-3M
COLO 205 = system: COLO 205
HOP-92 = system: HOP-92
KM12 = system: KM12
OVCAR-5 = system: OVCAR-5
SF-539 = system: SF-539
SN12C = system: SN12C

Measured: GI50

Cc1c(Cl)ccc2c1NC(=O)C2(O)CC(=O)c1ccc(Cl)cc1 (stereo not given)
inactive: MOLT-4 17.7 µM | RPMI-8226 30.8 µM | SF-268 > 70.1 µM | U-251 60.8 µM | M14 > 100 µM | OVCAR-8 34.9 µM | UACC-257 23.7 µM | NCI-H226 > 55.2 µM | ACHN > 100 µM | A549 > 100 µM | SK-MEL-28 > 94.4 µM | DLD-1 42.9 µM | SK-MEL-2 > 46 µM | Malme-3M 37.8 µM | COLO 205 32.4 µM | HOP-92 69.2 µM | KM12 51.2 µM | OVCAR-5 > 100 µM | SF-539 65.2 µM | SN12C 26.8 µM

OCC1CC2C=CCC(C2)C1 (stereo not given)
inactive: MOLT-4 > 100 µM | RPMI-8226 > 100 µM | SF-268 > 100 µM | U-251 > 100 µM | M14 > 100 µM | OVCAR-8 > 100 µM | UACC-257 > 100 µM | NCI-H226 > 100 µM | ACHN > 100 µM | A549 > 100 µM | SK-MEL-28 > 100 µM | DLD-1 > 100 µM | SK-MEL-2 > 100 µM | Malme-3M > 100 µM | COLO 205 > 100 µM | HOP-92 > 100 µM | KM12 > 100 µM | OVCAR-5 > 100 µM | SF-539 > 100 µM | SN12C > 100 µM

C=CCC12CC(=O)CCC1c1ccc(OC)cc1C2=O (stereo not given)
inactive: MOLT-4 > 100 µM | RPMI-8226 > 100 µM | SF-268 > 100 µM | U-251 > 100 µM | M14 > 100 µM | OVCAR-8 > 100 µM | UACC-257 > 100 µM | NCI-H226 > 100 µM | ACHN > 100 µM | A549 > 100 µM | SK-MEL-28 > 100 µM | DLD-1 > 100 µM | SK-MEL-2 > 100 µM | Malme-3M > 100 µM | COLO 205 > 100 µM | HOP-92 > 100 µM | KM12 > 100 µM | OVCAR-5 > 100 µM | SF-539 > 100 µM | SN12C > 100 µM

CC(=O)C1C(=O)C(=O)N(c2ccccc2N2C(=O)C(=O)C(C(C)=O)C2=O)C1=O (stereo not given)
inactive: MOLT-4 > 100 µM | RPMI-8226 > 100 µM | SF-268 > 100 µM | U-251 > 100 µM | M14 > 100 µM | OVCAR-8 > 100 µM | UACC-257 > 100 µM | NCI-H226 > 100 µM | ACHN > 100 µM | A549 > 100 µM | SK-MEL-28 > 100 µM | DLD-1 > 100 µM | SK-MEL-2 > 100 µM | Malme-3M > 100 µM | COLO 205 > 100 µM | HOP-92 > 100 µM | KM12 > 100 µM | OVCAR-5 > 100 µM | SF-539 > 100 µM | SN12C > 100 µM

COc1cc(C)c(C)c(OC(=O)c2c(C)c(C)c(OC)c(C)c2OC)c1C
inactive: MOLT-4 9.31 µM | RPMI-8226 13.6 µM | SF-268 11.8 µM | U-251 3.74 µM | M14 6.75 µM | OVCAR-8 19.5 µM | UACC-257 17.8 µM | NCI-H226 15.7 µM | ACHN 13.4 µM | A549 4.11 µM | SK-MEL-28 20.4 µM | DLD-1 7.31 µM | SK-MEL-2 5.04 µM | Malme-3M 6.9 µM | COLO 205 3.18 µM | HOP-92 7.19 µM | KM12 3.31 µM | OVCAR-5 28.8 µM | SF-539 14.1 µM | SN12C 15.7 µM

CC(C)N1C(C)[C@@H](c2ccccc2)O[P@@]1(=O)CC1=CCCCC1 (stereo not given in full)
inactive: MOLT-4 80.7 µM | RPMI-8226 49.1 µM | SF-268 > 100 µM | U-251 > 100 µM | M14 > 100 µM | OVCAR-8 > 100 µM | UACC-257 > 100 µM | NCI-H226 > 100 µM | ACHN > 100 µM | A549 > 100 µM | SK-MEL-28 > 100 µM | DLD-1 > 100 µM | SK-MEL-2 > 100 µM | Malme-3M > 100 µM | COLO 205 > 100 µM | HOP-92 45.8 µM | KM12 > 100 µM | OVCAR-5 > 100 µM | SF-539 > 100 µM | SN12C > 100 µM

C[C@]12CCC[C@H](Cl)C1(O)C[C@H](C(=O)O)CC2 (stereo not given in full)
inactive: MOLT-4 > 100 µM | RPMI-8226 > 100 µM | SF-268 > 100 µM | U-251 > 100 µM | M14 > 100 µM | OVCAR-8 > 100 µM | UACC-257 > 100 µM | NCI-H226 > 100 µM | ACHN > 100 µM | A549 > 100 µM | SK-MEL-28 > 100 µM | DLD-1 > 100 µM | SK-MEL-2 > 100 µM | Malme-3M > 100 µM | COLO 205 > 100 µM | HOP-92 > 100 µM | KM12 > 100 µM | OVCAR-5 > 100 µM | SF-539 > 100 µM | SN12C > 100 µM

NC1CC(n2ccc(=O)[nH]c2=O)OC1C(O)CO (stereo not given)
inactive: MOLT-4 > 100 µM | RPMI-8226 > 100 µM | SF-268 > 100 µM | U-251 > 100 µM | M14 > 100 µM | OVCAR-8 > 100 µM | UACC-257 > 100 µM | NCI-H226 > 100 µM | ACHN > 100 µM | A549 > 100 µM | SK-MEL-28 > 100 µM | DLD-1 > 100 µM | SK-MEL-2 > 100 µM | Malme-3M > 100 µM | COLO 205 > 100 µM | HOP-92 > 100 µM | KM12 > 100 µM | OVCAR-5 > 100 µM | SF-539 > 100 µM | SN12C > 100 µM
